Residues, ends and D or L forms follow the SMILES beside them.
What was measured:
[1] = molecular target: HCV glycoprotein E1E2-mediated membrane fusion (Hepatitis C virus genotype 1a, UniProt P27958); assay: cell-based; assay type: cell-based, Hepatitis C virus (strain H77); settings: for % of fusion: Cre/stop fusion system, peptide 1 µM, luciferase divided by solvent control (0.5% DMSO)
[2] = test system: HCVcc (Jc1-luc); settings: Huh7.5.1 cells, various concentration ratios, CalcuSyn
Method: Huh7.5.1 cells were infected with HCVccs (Jc1-luc) and treated with combinations of E27 and Telaprevir, Danoprevir, Ribavirin, Sofosbuvir or Simeprevir. The cells were lysed for a luciferase assay after 48 h. The calculated EC90 values for the combinations were plotted as the fractional concentration (FC) of E27 and one of Telaprevir, Danoprevir, Ribavirin, Sofosbuvir or Simeprevir on the x and y axes, respectively.
The effects of drug combinations were evaluated using Huh7.5.1 cells and the computer software CalcuSyn (Biosoft, Cambridge, United Kingdom). Dose inhibition curves of two different drugs were plotted together; for each drug combination, the EC90 values of several combinations of two different drugs were plotted as the fractional concentration (FC) of both drugs on the x and y axes. […] Combination indexes (CIs) were calculated at the EC50, EC75, and EC90 values using CalcuSyn. A CI value of less than 0.9 indicates synergy, a CI value ranging from 0.9 to 1.1 indicates additivity, and a CI value of more than 1.1 indicates antagonism.

HCV glycoprotein E1E2-mediated membrane fusion, sequence (P27958 384-746): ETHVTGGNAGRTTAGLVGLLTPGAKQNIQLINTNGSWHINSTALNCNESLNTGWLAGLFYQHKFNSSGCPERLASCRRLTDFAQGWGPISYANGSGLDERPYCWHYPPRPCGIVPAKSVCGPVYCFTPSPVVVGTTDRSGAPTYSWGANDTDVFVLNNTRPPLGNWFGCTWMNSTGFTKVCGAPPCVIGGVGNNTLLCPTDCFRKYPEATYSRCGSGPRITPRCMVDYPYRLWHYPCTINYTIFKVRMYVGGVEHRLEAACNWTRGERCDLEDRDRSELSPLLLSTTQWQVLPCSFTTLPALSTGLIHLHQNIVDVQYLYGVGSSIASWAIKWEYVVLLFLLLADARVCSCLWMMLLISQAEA
HCV glycoprotein E1E2-mediated membrane fusion, sequence (P27958 192-383): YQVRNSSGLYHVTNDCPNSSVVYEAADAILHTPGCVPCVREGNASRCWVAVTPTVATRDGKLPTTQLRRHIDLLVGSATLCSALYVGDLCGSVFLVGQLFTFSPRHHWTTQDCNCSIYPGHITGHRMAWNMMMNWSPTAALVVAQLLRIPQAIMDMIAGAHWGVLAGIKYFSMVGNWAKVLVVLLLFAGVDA

Row | Compound | % of fusion [1] | further results
1 | YEVRNVSGVYHVTNDCSNAS IVYEAADMIM [HCV-1, 30-mer of overlapping peptide library covering full-length E1E2 of HCV strain H77] | 56.4% | 
2 | QAVVDMVAGAHWGVLAGLAYYSMVGNWAKV [HCV-11, 30-mer of overlapping E1E2 peptide library] | 121.6% | 
3 | CCC[C@H](NC(=O)[C@@H]1[C@H]2CCC[C@H]2CN1C(=O)[C@@H](NC(=O)[C@@H](NC(=O)c1cnccn1)C1CCCCC1)C(C)(C)C)C(=O)C(=O)NC1CC1 [Telaprevir] |  | effect on inhibition of HCV infection in combination with E27 [2]: slightly synergistic trend
4 | GAAALCSAMYV GDLC GSVFLVAQLF TFSP R [HCV-6, 30-mer of overlapping E1E2 peptide library] | 81.5% | 
5 | SHSSDQRP YCWHYAP RP CGI VP AAQVC GP V [HCV-20, 30-mer of overlapping E1E2 peptide library] | 65.8% | 
6 | VTGGTM AKNTLGI TSLFSP GSSQKIQLVNT [HCV-14, 30-mer of overlapping E1E2 peptide library] | 69.6% | 
7 | CGS GP WLTP RCLVHYP YRLWHYP CTVNFTI [HCV-28, 30-mer of overlapping E1E2 peptide library] | 82.2% | 
8 | SVP TTTIRRHVDLLV GAAALC SAMYVGDLC [HCV-5, 30-mer of overlapping E1E2 peptide library] | 84.7% | 
9 | FKVRMYVGGVEHRLE AACNWTRGERCNLED [HCV-30, 30-mer of overlapping E1E2 peptide library] | 99.6% | 
10 | YCFTP SPVVVGTTDRF GVP TYSWGENETDV [HCV-22, 30-mer of overlapping E1E2 peptide library] | 79.0% | 
11 | NGS WHINR TALNCNDSLNTGFLAALFYVHK [HCV-16, 30-mer of overlapping E1E2 peptide library] | 64.2% | 
12 | P TDCF RKHP EATY TKC GS GP W LTP RCLV HY [HCV-27, 30-mer of overlapping E1E2 peptide library] | 65.1% | 
13 | FNSSGCPERMASCSPIDAFAQGWGPITYNE [HCV-18, 30-mer of overlapping E1E2 peptide library] | 70.8% | 
14 | PPCNIGGI GNKTLTCP TDCFRKHP EATYTK [HCV-26, 30-mer of overlapping E1E2 peptide library] | 121.6% | 
15 | LYGIGS AVVSFAIKWEYVLLLFLLLADARV [HCV-35, 30-mer of overlapping E1E2 peptide library] | 40.0% | 
16 | HVTGHRMAWDMMMNWSP TAALVVSQLLRIP [HCV-9, 30-mer of overlapping E1E2 peptide library] | 56.9% | 
17 | NC(=O)c1ncn([C@@H]2O[C@H](CO)[C@@H](O)[C@H]2O)n1 [Ribavirin] |  | effect on inhibition of HCV infection in combination with E27 [2]: slightly synergistic trend
18 | TGLIHLHQNVVDVQYLYGI GSAVVSFAIKW [HCV-34, 30-mer of overlapping E1E2 peptide library] | 24.9% | 
19 | HTP GCVP CVRENNSSRCWVALTP TLAAR NA [HCV-3, 30-mer of overlapping E1E2 peptide library] | 64.3% | 
20 | EYVLLLFLLLADARVCACLWMMLLIAQAEA [HCV-36, 30-mer of overlapping E1E2 peptide library] | 10.7% | 

Row | Compound | % of fusion [1] | further results
21 | AGLAYYSMVGNWAKVLIVMLLF AGVDGGTY [HCV-12, 30-mer of overlapping E1E2 peptide library] | 122.8% | 
22 | COc1ccc2c(O[C@@H]3C[C@H]4C(=O)N[C@]5(C(=O)NS(=O)(=O)C6CC6)C[C@H]5/C=C\CCCCN(C)C(=O)[C@@H]4C3)cc(-c3nc(C(C)C)cs3)nc2c1C [Simeprevir] |  | effect on inhibition of HCV infection in combination with E27 [2]: slight antagonism
23 | RDRS ELS P LLLS TTEW QV LP CS F TTLP ALS [HCV-32, 30-mer of overlapping E1E2 peptide library] | 11 . 2% | 
24 | AAC NW TR GERCN LEDRDRS E LS P LLLS TTE [HCV-31, 30-mer of overlapping E1E2 peptide library] | 56.9% | 
25 | SP TAALVVSQLLRIP QAVVDMVAGAHWGVL [HCV-10, 30-mer of overlapping E1E2 peptide library] | 78.8% | 
26 | SLNTGFLAALFYVHKFNSSGCPERMASCSP [HCV-17, 30-mer of overlapping E1E2 peptide library] | 66.7% | 
27 | CSNASIVYEAADMIMHTP GC VP CVRENNSS [HCV-2, 30-mer of overlapping E1E2 peptide library] | 80.8% | 
28 | LFSP GSSQKIQLVNTNGS WHI NRTALNCND [HCV-15, 30-mer of overlapping E1E2 peptide library] | 56.0% | 
29 | GSVFLVAQLFTFSPRRHETVQDCNCSIYPG [HCV-7, 30-mer of overlapping E1E2 peptide library] | 85.5% | 
30 | CC[C@H](C)[C@H](NC(=O)[C@H](C)NC(=O)[C@H](Cc1c[nH]c2ccccc12)NC(=O)[C@H](CO)NC(=O)[C@H](C)NC(=O)[C@@H](NC(=O)[C@H](CO)NC(=O)[C@H](CO)NC(=O)CNC(=O)[C@@H](NC(=O)CNC(=O)[C@H](Cc1ccc(O)cc1)NC(=O)[C@H](CC(C)C)NC(=O)[C@H](Cc1ccc(O)cc1)NC(=O)[C@H](CCC(N)=O)NC(=O)[C@@H](NC(=O)[C@H](CC(=O)O)NC(=O)[C@@H](NC(=O)[C@@H](NC(=O)[C@H](CC(N)=O)NC(=O)[C@H](CCC(N)=O)NC(=O)[C@H](Cc1c[nH]cn1)NC(=O)[C@H](CC(C)C)NC(=O)[C@H](Cc1c[nH]cn1)NC(=O)[C@@H](NC(=O)[C@H](CC(C)C)NC(=O)CNC(=O)[C@@H](NC(=O)[C@H](CO)NC(=O)[C@H](CC(C)C)NC(=O)[C@H](C)NC(=O)[C@@H]1CCCN1C(=O)[C@H](CC(C)C)NC(=O)[C@@H](N)[C@@H](C)O)[C@@H](C)O)[C@@H](C)CC)[C@@H](C)CC)C(C)C)C(C)C)C(C)C)[C@@H](C)CC)C(=O)N[C@@H](CCCCN)C(=O)O [E28] (H-TLPALSTGLIHLHQNIVDVQYLYGVGSSIASWAIK-OH; N-terminus and C-terminus assumed) |  | EC50 [1]: > 20 µM
31 | LIVMLLF AGVDGGTYVTGGTMAKNTLGI TS [HCV-13, 30-mer of overlapping E1E2 peptide library] | 60.1% | 
32 | P YRLWHYP CTVNFTIFKVRMYVGGVEHRLE [HCV-29, 30-mer of overlapping E1E2 peptide library] | 83.2% | 
33 | CTWMNSTGF TKTC GGP P CNIGGI GNKTLTC [HCV-25, 30-mer of overlapping E1E2 peptide library] | 87.4% | 
34 | CC(C)OC(=O)[C@H](C)N[P@](=O)(OC[C@H]1O[C@@H](n2ccc(=O)[nH]c2=O)[C@](C)(F)[C@@H]1O)Oc1ccccc1 [Sofosbuvir] |  | effect on inhibition of HCV infection in combination with E27 [2]: slight antagonism
35 | RCWVALTP TLAARNASVP TTTIRRHVDLLV [HCV-4, 30-mer of overlapping E1E2 peptide library] | 85.2% | 
36 | FGVP TYSWGENE TDVLLLNNTRPP QGNWFG [HCV-23, 30-mer of overlapping E1E2 peptide library] | 145.0% | 
37 | RP CGIVP AAQVC GP VYCFTP SPVVVGTTDR [HCV-21, 30-mer of overlapping E1E2 peptide library] | 63.7% | 
38 | WQVLP CSFTTLP ALS TGLIHLHQNVVDVQY [HCV-33, 30-mer of overlapping E1E2 peptide library] | 9.7% | 
39 | IDAF AQGWGP ITYNESHSSDQRP YCWHYAP [HCV-19, 30-mer of overlapping E1E2 peptide library] | 129.8% | 
40 | RHETVQDCNCSIYP GHVTGHRMAWDMMMNW [HCV-8, 30-mer of overlapping E1E2 peptide library] | 76.9% | 

From publication PMC4848495, “Identification of a Potent and Broad-Spectrum Hepatitis C Virus Fusion Inhibitory Peptide from the E2 Stem Domain” (Scientific Reports, 2016)
